IC50 data for 35 molecules are collected here from patent US20240150321A1, “PYRAZOLYLSULFONAMIDE COMPOUNDS AND THEIR USE IN THERAPY” (HOTSPOT THERAPEUTICS, INC., priority 2022, published 2024).

The target of assay [1] is Avi-tagged FL MALT-1 (Homo sapiens (Human), UniProt Q9UDY8). As to the kind of experiment: MALT-1 Fluorogenic Peptide Cleavage Assay (MALT1 inhibition assay). Type of assay: biochemical. Conditions: Ac-LRSR-AMC peptide substrate, 30 min pre-incubation, 90 min reaction at room temperature. The method in brief:
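Cleavage of Ac-LRSR-AMC, read as fluorescence at 342/441 nm after 90 min at room temperature, with substrate working stocks of 50 μM (Km) or 280 μM (10×Km). Enzyme, Avi-tagged full-length MALT-1 (40 nM stock), was first pre-incubated 30 min with compound in citrate/HEPES pH 6.89 buffer with TCEP, EDTA, CHAPS and 2% DMSO; IC50 fitted from normalised % inhibition.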

For assay [2], the system named is NF-kB reporter in Jurkat cells. As to the kind of experiment: NF-kB reporter assay in Jurkat cells stimulated with aCD3/aCD28/PMA. Format: cell-based. Conditions: read-out: NF-kB Reporter Assay IC50. Summed up:
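Luminescence (One-Glo) from the NF-kB reporter yielded IC50 values. Stimulation lasted 4 h at 37° C with aCD3, aCD28 and PMA (final 5, 5 and 0.03 […]), after 1 h compound pre-exposure of 25,000 Jurkat cells per well in serum-free RPMI.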

The mark [3] stands for this setting: Homo sapiens, Jurkat cells, 1 hr compound pre-incubation, aCD3/aCD28/PMA stimulation 4 hr, One-Glo readout.

pIC50: −log10 of the molar value. Read-outs that look alike come from different tables or passages of the source.

Chain of Avi-tagged FL MALT-1 (Q9UDY8 whole entry): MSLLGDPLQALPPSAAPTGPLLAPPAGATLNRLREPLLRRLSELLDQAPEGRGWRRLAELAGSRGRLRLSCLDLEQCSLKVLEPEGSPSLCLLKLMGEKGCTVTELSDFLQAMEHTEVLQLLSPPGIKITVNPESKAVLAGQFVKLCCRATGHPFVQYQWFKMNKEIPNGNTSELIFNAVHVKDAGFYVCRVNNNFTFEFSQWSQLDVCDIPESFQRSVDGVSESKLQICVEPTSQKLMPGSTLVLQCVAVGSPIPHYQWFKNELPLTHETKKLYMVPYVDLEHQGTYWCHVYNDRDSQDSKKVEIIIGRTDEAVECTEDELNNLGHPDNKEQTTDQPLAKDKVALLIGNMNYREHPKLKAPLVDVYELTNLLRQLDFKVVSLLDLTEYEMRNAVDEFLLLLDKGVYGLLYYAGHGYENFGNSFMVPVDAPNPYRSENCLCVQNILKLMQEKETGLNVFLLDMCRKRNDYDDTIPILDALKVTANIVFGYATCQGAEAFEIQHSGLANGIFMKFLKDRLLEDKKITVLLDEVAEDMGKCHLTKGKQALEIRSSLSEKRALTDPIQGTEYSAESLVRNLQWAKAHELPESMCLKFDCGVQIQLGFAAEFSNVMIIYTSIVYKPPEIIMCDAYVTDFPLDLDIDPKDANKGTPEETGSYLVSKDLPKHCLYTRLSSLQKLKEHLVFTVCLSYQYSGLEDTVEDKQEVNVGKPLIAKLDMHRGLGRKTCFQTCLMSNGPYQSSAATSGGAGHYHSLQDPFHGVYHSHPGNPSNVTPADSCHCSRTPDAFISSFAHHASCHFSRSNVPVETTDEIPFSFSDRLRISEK

For the molecule `CN1CCC[C@@H](n2cc(S(=O)(=O)Nc3cccc4cnn(C)c34)cn2)C1` [Compound I-308, N-(1-methylindazol-7-yl)-1-[(3R)-1-methylpiperidin-3-yl]pyrazole-4-sulfonamide], the pIC50 in assay [1] and in assay [2] (setting [3]) was < 5.60 in each case.

With `CN1CCC[C@H](n2cc(S(=O)(=O)Nc3cccc4cnn(C)c34)cn2)C1` [Compound I-309], the pIC50 in assay [1] and in assay [2] (setting [3]) was < 5.60 throughout.

Turning to `CO[C@@]1(c2ccnc(-n3cc(S(=O)(=O)Nc4cccc5cnn(C)c45)cn3)c2)CCOC1` [Compound I-311], the pIC50 in assay [1] was < 5.60; in assay [2] (setting [3]), > 6.40.

In the case of `CC[C@@](C)(O)c1ccnc(-n2cc(S(=O)(=O)Nc3c(OC)ccc4cnn(C)c34)cn2)c1` [Compound I-316], the figures for the pIC50 in assay [1] and in assay [2] (setting [3]) were 5.60 to 6.00 and > 6.40, respectively.

`CC[C@H](OC)c1ccnc(-n2cc(S(=O)(=O)Nc3c(OC)ccc4cnn(C)c34)cn2)c1` [Compound I-317, (S)—N-(6-Methoxy-1-Methyl-1H-Indazol-7-yl)-1-(4-(1-Methoxypropyl)Pyridin-2-yl)-1H-Pyrazole-4-Sulfonamide]: the pIC50 in assay [1] is ≥ 6.40; in assay [2] (setting [3]) it was > 6.40.

As for `CC[C@@H](OC)c1ccnc(-n2cc(S(=O)(=O)Nc3c(OC)ccc4cnn(C)c34)cn2)c1` [Compound I-318, N-(6-methoxy-1-methylindazol-7-yl)-1-{4-[(1R)-1-methoxypropyl]pyridin-2-yl}pyrazole-4-sulfonamide], the negative logarithm of the IC50 (pIC50) was ≥ 6.40 in assay [1] and > 6.40 in assay [2] (setting [3]).

With `C[C@H]1CN(c2ccnc(-n3cc(S(=O)(=O)Nc4cccc5cnn(C)c45)cn3)c2)C(=O)O1` [Compound I-319], the pIC50 was < 5.60 in assay [1] and > 6.40 in assay [2] (setting [3]).

In the case of `C[C@@H]1CN(c2ccnc(-n3cc(S(=O)(=O)Nc4cccc5cnn(C)c45)cn3)c2)C(=O)O1` [Compound I-320], the pIC50 in assay [1] was < 5.60; in assay [2] (setting [3]) it was > 6.40.

Regarding `Cn1ncc2cccc(NS(=O)(=O)c3cnn(-c4cc(N5C(=O)OCC5(C)C)ccn4)c3)c21` [Compound I-321], the results for the pIC50 in assay [1] and in assay [2] (setting [3]) were < 5.60 and > 6.40, respectively.

As to `CN1CCN(c2ccnc(-n3cc(S(=O)(=O)Nc4cccc5cnn(C)c45)cn3)c2)C1=O` [Compound I-322], the values for the pIC50 in assay [1] and in assay [2] (setting [3]) were < 5.60 and > 6.40, respectively.

As for `COc1ccc2cnn(C)c2c1NS(=O)(=O)c1cnn(-c2cc(CO)ccn2)c1` [Compound I-323, 1-[4-(hydroxymethyl)pyridin-2-yl]-N-(6-methoxy-1-methylindazol-7-yl)pyrazole-4-sulfonamide], the results for the pIC50 in assay [1] and in assay [2] (setting [3]) were 6.00 to 6.40 and > 6.40, respectively.

Consider `Cn1ncc2cccc(NS(=O)(=O)c3cnn(-c4cc(NC(C)(C)CO)ccn4)c3)c21` [Compound I-324, 1-(4-((1-Hydroxy-2-Methylpropan-2-yl)Amino)Pyridin-2-yl)-N-(1-Methyl-1H-Indazol-7-yl)-1H-Pyrazole-4-Sulfonamide], for which the negative logarithm of the IC50 (pIC50) is < 5.60 in assay [1] and > 6.40 in assay [2] (setting [3]).

Take `CN1CC(c2ccnc(-n3cc(S(=O)(=O)Nc4cccc5cnn(C)c45)cn3)c2)C1` [Compound I-325]: the pIC50 in assay [1] and in assay [2] (setting [3]) was < 5.60 throughout.

On to `CC(=O)N1CC(c2ccnc(-n3cc(S(=O)(=O)Nc4cccc5cnn(C)c45)cn3)c2)C1` [Compound I-326], for which the pIC50 in assay [1] and in assay [2] (setting [3]) was < 5.60 in each case.

Regarding `Cn1ncc2ccc(OC(F)(F)F)c(NS(=O)(=O)c3cnn(-c4cc(C(F)(F)F)ccn4)c3)c21` [Compound I-327, N-[1-methyl-6-(trifluoromethoxy)indazol-7-yl]-1-[4-(trifluoromethyl)pyridin-2-yl]pyrazole-4-sulfonamide], the pIC50 was ≥ 6.40 in assay [1] and > 6.40 in assay [2] (Homo sapiens, Jurkat).

For `Cn1ncc2cccc(NS(=O)(=O)c3cnn([C@@H]4CCCN(CC(F)(F)F)C4)c3)c21` [Compound I-328], the figures for the pIC50 in assay [1] and in assay [2] (setting [3]) were < 5.60 and 5.60 to 6.00, respectively.

As for `Cn1ncc2cccc(NS(=O)(=O)c3cnn([C@H]4CCCN(CC(F)(F)F)C4)c3)c21` [Compound I-329], the pIC50 is < 5.60 in assay [1] and 5.60 to 6.00 in assay [2] (setting [3]).

For `COC[C@](C)(F)c1ccnc(-n2cc(S(=O)(=O)Nc3cccc4cnn(C)c34)cn2)c1` [Compound I-330, (R)-1-(4-(2-fluoro-1-methoxypropan-2-yl)pyridin-2-yl)-N-(1-methyl-1H-indazol-7-yl)-1H-pyrazole-4-sulfonamide], the pIC50 in assay [1] was < 5.60; in assay [2] (setting [3]) it was > 6.40.

In the case of `COC[C@@](C)(F)c1ccnc(-n2cc(S(=O)(=O)Nc3cccc4cnn(C)c34)cn2)c1` [Compound I-331, (S)-1-(4-(2-fluoro-1-methoxypropan-2-yl)pyridin-2-yl)-N-(1-methyl-1H-indazol-7-yl)-1H-pyrazole-4-sulfonamide], the figures for the pIC50 in assay [1] and in assay [2] (setting [3]) were < 5.60 and > 6.40, respectively.

Consider `CN1C(=O)N(c2ccnc(-n3cc(S(=O)(=O)Nc4cccc5cnn(C)c45)cn3)c2)CC1(C)C` [Compound I-332], for which the pIC50 in assay [1] is < 5.60; in assay [2] (setting [3]), > 6.40.

For `CN1CC(C)(C)N(c2ccnc(-n3cc(S(=O)(=O)Nc4cccc5cnn(C)c45)cn3)c2)C1=O` [Compound I-333], the pIC50 is < 5.60 in assay [1] and > 6.40 in assay [2] (setting [3]).

`Cn1ncc2cccc(NS(=O)(=O)c3cnn(-c4cc([C@@]5(F)CCOC5)ccn4)c3)c21` [Compound I-334]: the pIC50 in assay [1] was < 5.60; in assay [2] (setting [3]), > 6.40.

`Cn1ncc2cccc(NS(=O)(=O)c3cnn(-c4cc([C@]5(F)CCOC5)ccn4)c3)c21` [Compound I-335]: the negative-log IC50 (pIC50) is < 5.60 in assay [1] and > 6.40 in assay [2] (setting [3]).

As to `[2H]C([2H])([2H])n1ncc2ccc(OC)c(N(C)S(=O)(=O)c3cnn(-c4cc(C(F)(F)F)ccn4)c3)c21` [Compound I-336, N-(6-methoxy-1-(methyl-d3)-1H-indazol-7-yl)-N-methyl-1-(4-(trifluoromethyl)pyridin-2-yl)-1H-pyrazole-4-sulfonamide], the pIC50 was ≥ 6.40 in assay [1] and > 6.40 in assay [2] (setting [3]).

Consider `Cn1ncc2ccc(OC(F)(F)F)c(N(S(=O)(=O)c3cnn(-c4cc(C(F)(F)F)ccn4)c3)S(=O)(=O)c3cnn(-c4cc(C(F)(F)F)ccn4)c3)c21` [Compound I-337, N-[1-methyl-6-(trifluoromethoxy)indazol-7-yl]-1-[4-(trifluoromethyl)pyridin-2-yl]-N-{1-[4-(trifluoromethyl)pyridin-2-yl]pyrazol-4-ylsulfonyl}pyrazole-4-sulfonamide], for which the negative-log IC50 (pIC50) in assay [1] and in assay [2] (setting [3]) was < 5.60 throughout.

Consider `[2H]c1cnc(-n2cc(S(=O)(=O)Nc3cccc4cnn(C([2H])([2H])[2H])c34)cn2)cc1C(F)(F)F` [Compound I-338, N-(1-(methyl-d3)-1H-indazol-7-yl)-1-(4-(trifluoromethyl)pyridin-2-yl-5-d)-1H-pyrazole-4-sulfonamide], for which the pIC50 in assay [1] is ≥ 6.40; in assay [2] (setting [3]) it was > 6.40.

On to `COc1ccc2cnn(C)c2c1NS(=O)(=O)c1cnn(-c2cc(C(C)O)ccn2)c1` (stereo not shown) [Compound I-339, 1-(4-(1-hydroxyethyl)pyridin-2-yl)-N-(6-methoxy-1-methyl-1H-indazol-7-yl)-1H-pyrazole-4-sulfonamide], for which the pIC50 was ≥ 6.40 in assay [1] and > 6.40 in assay [2] (Jurkat cells, 1 hr compound pre-incubation, aCD3/aCD28/PMA stimulation 4 hr, One-Glo readout).

In the case of `COc1ccc2cnn(C)c2c1NS(=O)(=O)c1cnn(-c2cc([C@@H](C)O)ccn2)c1` [Compound I-340, (R)-1-(4-(1-hydroxyethyl)pyridin-2-yl)-N-(6-methoxy-1-methyl-1H-indazol-7-yl)-1H-pyrazole-4-sulfonamide], the pIC50 in assay [1] was ≥ 6.40; in assay [2] (setting [3]), > 6.40.

In the case of `COC[C@@H](OC)c1ccnc(-n2cc(S(=O)(=O)Nc3cccc4cnn(C)c34)cn2)c1` [Compound I-341], the negative-log IC50 (pIC50) in assay [1] was < 5.60; in assay [2] (setting [3]), > 6.40.

For `COC[C@H](OC)c1ccnc(-n2cc(S(=O)(=O)Nc3cccc4cnn(C)c34)cn2)c1` [Compound I-342], the pIC50 in assay [1] was < 5.60; in assay [2] (setting [3]), 6.00 to 6.40.

On to `C=CC(F)c1ccnc(-n2cc(S(=O)(=O)Nc3c(OC)ccc4cnn(C)c34)cn2)c1` (stereo not shown) [Compound I-343, 1-(4-(1-fluoroallyl)pyridin-2-yl)-N-(6-methoxy-1-methyl-1H-indazol-7-yl)-1H-pyrazole-4-sulfonamide], for which the results for the pIC50 in assay [1] and in assay [2] (setting [3]) were ≥ 6.40 and 5.60 to 6.00, respectively.

`CN1CC(O)(c2ccnc(-n3cc(S(=O)(=O)Nc4cccc5cnn(C)c45)cn3)c2)C1` [Compound I-344]: the pIC50 in assay [1] and in assay [2] (setting [3]) was < 5.60 in each case.

Turning to `CN1CCC(n2cc(S(=O)(=O)Nc3cccc4cnn(C)c34)cn2)CC1` [Compound I-345], the pIC50 in assay [1] is < 5.60; in assay [2] (setting [3]), 6.00 to 6.40.

With `C[C@H]1CN(c2ccnc(-n3cc(S(=O)(=O)Nc4cccc5cnn(C)c45)cn3)c2)C(=O)N1C` [Compound I-346], the values for the pIC50 in assay [1] and in assay [2] (setting [3]) were < 5.60 and > 6.40, respectively.

Take `C[C@@H]1CN(c2ccnc(-n3cc(S(=O)(=O)Nc4cccc5cnn(C)c45)cn3)c2)C(=O)N1C` [Compound I-347, (R)-1-(4-(3,4-dimethyl-2-oxoimidazolidin-1-yl)pyridin-2-yl)-N-(1-methyl-1H-indazol-7-yl)-1H-pyrazole-4-sulfonamide]: the pIC50 in assay [1] is < 5.60; in assay [2] (setting [3]), > 6.40.
